Data taken from patent US9861104B2, “Method for producing an aqueous suspension concentrate formulation of a pyripyropene insecticide” (BASF SE, priority 2012, dated 2018).

Experiment: Conversion of the aqueous slurry into form B, followed by XRPD
Assay type: physicochemical
Conditions: 30 parts Insecticide A / 70 parts water, stirred
Method: The recorded 2θ values were used to calculate the stated interplanar spacings d. The intensity of the peaks (y-axis: linear intensity counts) is plotted versus the 2θ angle (x-axis in degrees 2θ). The formulation was prepared as follows: • (a) 30 parts by weight of Insecticide A, in the form of a powder, and 70 parts by weight of water were mixed in a vessel to obtain an aqueous slurry. The particle diameter of the particles was in the range 30-800 μm. […] The temperature of grinding head was controlled at 5° C. The milling was stopped when an average particle size of 1.5-2 μm (volume average) had been achieved (measured with Malvern Mastersizer 2000). To the thus obtained suspension the remaining antifoaming agent, the preservative and the thickener and water were added to with stirring to ensure homogeneous distribution of components. The amount of water was chosen that the final concentration of the pyripyropene derivative in the formulation was 100 g/l.

C[C@]1(COC(=O)C2CC2)[C@@H]2C[C@H](O)[C@@]3(C)Oc4cc(-c5cccnc5)oc(=O)c4[C@H](O)[C@@H]3[C@@]2(C)CC[C@@H]1OC(=O)C1CC1 [Insecticide A]
Conversion time (conversion of at least 90% into form B) (20° C.): <190 h
Conversion time (conversion of at least 90% into form B) (40° C.): <48 h
Conversion time (conversion of at least 90% into form B) (60° C.): 12 h
